From patent publication US20250057864A1, “COMPOSITION FOR IMPROVING EXERCISE PERFORMANCE COMPRISING GYPENOSIDE COMPOUND AS ACTIVE INGREDIENT” (BTC CORPORATION, priority 2022, published 2025)

Key:
[1] = tested on: p-AMPK, p-Sirt1, p-p38, p-Nrf2 in C2C12 cells; test: Western blot of proteins related with PGC-1α activation in C2C12 cells; format: cell-based, mice; conditions: C2C12, 0.36 μg/mL (Cr 5 μg/mL); for Protein expression level p-AMPK / Protein expression level p-Nrf2 / Protein expression level p-Sirt1 / Protein expression level p-p38: 7 days; for p-AMPK/AMPK ratio / p-Nrf2/Nrf2 ratio / p-Sirt1/Sirt1 ratio / p-p38/p38 ratio: control G1 = 1.00
Protocol: (§1) C2C12 cells were dispensed into a 6-well plate at 2×10^5 cells/well and stabilized for 24 hours. In order to investigate the effect of each test substance on muscle cell differentiation, each test substance was added to the myocyte differentiation medium. The cells were cultured for 4 days (mRNA analysis) or 7 days (protein analysis) after exchanging the cell culture medium with the myocyte differentiation medium treated with each test substance, as shown in Table 2.
C2C12 cells were dispensed into a 6-well plate at 2×10^5 cells/well and stabilized for 24 hours. The cells were cultured for 7 days after exchanging the culture medium with a myocyte differentiation medium containing the test substance. After the induction of differentiation for 7 days, the cells were homogenized by adding a lysis buffer (20 mmol/L HEPES, pH 7.5, 150 mmol/L NaCl, 1% Triton X-100, 1 mmol/L EDTA, 1 mmol/L EGTA, 100 mmol/L NaF, 10 mmol/L sodium pyrophosphate, 1 mmol/L Na3VO4, 20 μg/mL aprotinin, 10 μg/mL antipain, 10 μg/mL leupeptin, 80 μg/mL benzamidine HCl, 0.2 mmol/L PMSF) and a total cell lysate was obtained through centrifugation. The protein quantity of the total cell lysate was measured using a BCA protein assay kit (Thermo Scientific). The total cell lysate (50 μg) was separated by 10% sodium dodecyl sulfate polyacrylamide gel electrophoresis (SDS-PAGE) and then transferred to a polyvinylidene difluoride membrane (Milipore). The membrane was blocked for 1 hour in 5% skim milk-TBST (20 mmol/L Tris·HCl, pH 7.5, 150 mmol/L NaCl, 0.1% Tween 20) and then incubated for 16 hours at 4° C. or for 1 hour at room temperature after adding antibodies. Thereafter, horseradish peroxidase (HRP)-linked anti-rabbit IgG or HRP-linked anti-mouse IgG was added and the mixture was stirred for 1 hour. The detected protein bands were visualized by enhanced chemiluminescence using a Luminata™ Forte Western HRP substrate (Millipore). The level of protein expression was quantified using the ImageQuant™ LAS 500 imaging system (GE Healthcare Bio-Sciences AB).
The result of western blot analysis conducted using the total cell lysate obtained by treating with the test substance to investigate the effect of the test substance on the changes in proteins associated with PGC-1α activation is shown in Table 6.
Based on the western blot analysis result, the activity of each protein was evaluated from the ratio of activation.

[2] = tested on: MHC1, MHC7, MHC2A, MHC2B, PGC-1α, PKB, FNDC5 in C2C12 cells; test: mRNA expression of genes related with muscular strength type in C2C12 cells; format: cell-based, mice; conditions: C2C12, 0.36 μg/mL (Cr 5 μg/mL), control G1 = 1.00
Protocol: as §1
C2C12 cells were dispensed into a 6-well plate at 2×10^5 cells/well and stabilized for 24 hours. The cells were cultured for 2 or 4 days after replacing the cell culture with a myocyte differentiation medium containing the test substance. After collecting the cells, total RNA was isolated using an RNeasy Plus Mini kit (QIAGEN), and quantified using a micro-volume spectrophotometer (BioSpec-nano, Shimadzu). RNAs with an OD260/280 value greater than 1.8 were used for experiment.
After obtaining cDNA from the total RNA (2 μg) using a HyperScript™ RT master mix kit (GeneAll Biotechnology), real-time PCR was performed using a Rotor-Gene 300 PCR kit (Corbett Research) and a Rotor-Gene™ SYBR Green kit (QIAGEN). Quantitative analysis of the gene expression was performed using the Rotor-Gene 6000 Series System Software program (Corbett Research).
The effect of the compositions according to Examples 1 to 4 on the mRNA expression of MHC1, MHC7, MHC2A and MHC2B, which are responsible for muscular strength type, was investigated.
The result of investigating the effect of the compositions according to Examples 1 to 4 on the mRNA expression of PGC-1α, PKB and FNDC5 on the muscular strength type is shown in Table 10.

ICR mice = test: Weight of liver and muscles; format: in vivo; conditions: 6 weeks
Protocol: After an acclimatization period of 1 week, healthy animals were selected and divided into 6 groups according to the randomized block design. The animals were divided into (G1) a non-exercise control group, (G2) a non-exercise+7 mg/kg body weight (BW) Example 1 group, (G3) a non-exercise+7 mg/kg BW Example 2 group, (G4) a non-exercise+7 mg/kg BW Example 3 group, (G5) a non-exercise+7 mg/kg BW Example 4 group, (G6) an exercise control group, (G7) an exercise+7 mg/kg BW Example 1 group, (G8) an exercise+7 mg/kg BW Example 2 group, (G9) an exercise+7 mg/kg BW Example 3 group, (G10) an exercise+7 mg/kg BW Example 4 group, and (G11) an exercise+75 mg/kg BW Cr dose group. Each test group consisted of 10 animals.
Before sacrificing, the experimental animal was anesthetized using an anesthetic prepared by dilution of tribromoethanol with tertiary amyl alcohol and blood was taken from the eye socket. The blood was placed in a serum-separating tube (Becton Dickinson) and left at room temperature for 30 minutes, centrifuged at 5,000 rpm for 10 minutes to separate the serum, and kept at −70° C. until analysis. After the blood sampling, the experimental animal was sacrificed and the liver and skeletal muscles [quadriceps femoris muscle (QF), gastrocnemius muscle (GA), soleus muscle (SOL), and extensor digitorum longus muscle (EDL)] were extracted. Their weight was measured after rinsing with cold physiological saline and removing excess water with filter paper. A portion of the soleus muscle (SOL) was fixed with 4% paraformaldehyde (PFA) and then embedded in paraffin for histoimmunological staining. Also, total RNA was isolated from a portion of the soleus muscle and subjected to real-time RT-PCR. Proteins were isolated from a portion of the gastrocnemius muscle (GA) and subjected to western blot. The remaining tissue was kept at −70° C. until analysis.
After the end of the test, the weight of the muscles and liver of the experimental animals was measured.
Since the body weight of the experimental animals was decreased due to exercise and the administration of the test substances, the relative weight of the muscles and liver per 100 g of body weight was calculated and shown in Table 23.

[3] = treadmill exercise, 7 mg/kg BW (Cr 75 mg/kg BW)

Row | SMILES | Protein expression level p-AMPK [1] | Protein expression level p-Nrf2 [1] | Protein expression level p-Sirt1 [1] | Protein expression level p-p38 [1] | p-AMPK/AMPK ratio [1] | p-Nrf2/Nrf2 ratio [1] | p-Sirt1/Sirt1 ratio [1] | p-p38/p38 ratio [1] | mRNA expression FNDC5 [2] | mRNA expression MHC1 [2] | mRNA expression MHC2A [2] | mRNA expression MHC2B [2] | mRNA expression MHC7 [2] | mRNA expression PGC-1α [2] | mRNA expression PKB [2] | Relative weight of extensor digitorum longus muscle (EDL) (ICR mice; [3]) [g/100 g body weight] | Relative weight of gastrocnemius muscle (GA) (ICR mice; [3]) | Relative weight of quadriceps femoris muscle (QF) (ICR mice; [3]) [g/100 g body weight] | Relative weight of soleus muscle (SOL) (ICR mice; [3]) [g/100 g body weight] | Weight of extensor digitorum longus muscle (EDL) (ICR mice; [3]) [g] | further results
1 | CC(C)=CCC[C@](C)(O)C1CC[C@]2(C)C1[C@H](O)CC1[C@@]3(C)C[C@@H](O)C(OC4OC(CO)C(O)C(O)C4OC4OC(CO)C(O)C(O)C4O)C(C)(C)C3CC[C@]12C (stereo partly drawn) [Example 1, Gypenoside L] | 117.7 ± 7.2 % of control group | 135.1 ± 1.6 % of control group | 143.4 ± 5.6 % of control group | 133.1 ± 7.1 % of control group | 1.27 ± 0.25 | 1.50 ± 0.11 | 1.38 ± 0.06 | 1.27 ± 0.07 | 2.97 ± 0.39 | 10.30 ± 1.75 | 1.54 ± 0.32 | 1.20 ± 0.12 | 1.80 ± 0.41 | 11.75 ± 3.82 | 3.04 ± 0.46 | 0.056 ± 0.003 | 1.122 ± 0.032^+ g/100 g body weight | 0.827 | 0.064 | 0.020 ± 0.001 | Relative weight of extensor digitorum longus muscle (EDL) (ICR mice; non-exercise, 7 mg/kg BW): 0.056 ± 0.002 g/100 g body weight; Relative weight of gastrocnemius muscle (GA) (ICR mice; non-exercise, 7 mg/kg BW): 1.040 ± 0.036^ g/100 g body weight; Relative weight of quadriceps femoris muscle (QF) (ICR mice; non-exercise, 7 mg/kg BW): 0.742 g/100 g body weight; Relative weight of soleus muscle (SOL) (ICR mice; non-exercise, 7 mg/kg BW): 0.056 g/100 g body weight; Weight of extensor digitorum longus muscle (EDL) (ICR mice; non-exercise, 7 mg/kg BW): 0.021 ± 0.001 g; Weight of gastrocnemius muscle (GA) (ICR mice; non-exercise, 7 mg/kg BW): 0.392 ± 0.010 g; Weight of quadriceps femoris muscle (QF) (ICR mice; non-exercise, 7 mg/kg BW): 0.282 g; Weight of soleus muscle (SOL) (ICR mice; non-exercise, 7 mg/kg BW): 0.021 g; Weight of gastrocnemius muscle (GA) (ICR mice; [3]): 0.406 ± 0.012 g; Weight of quadriceps femoris muscle (QF) (ICR mice; [3]): 0.296 g; Weight of soleus muscle (SOL) (ICR mice; [3]): 0.023 g
2 | CN(CC(=O)O)C(=N)N.O [Cr, Creatine monohydrate, reference compound] | 104.6 ± 14.4 % of control group | 116.2 ± 11.4 % of control group | 114.0 ± 11.1 % of control group | 151.5 ± 41.0 % of control group | 1.09 ± 0.13 | 1.20 ± 0.26 | 1.11 ± 0.10 | 1.15 ± 0.29 | 1.83 ± 0.47 | 4.50 ± 1.43 | 1.74 ± 0.22 | 1.10 ± 0.10 | 7.87 ± 2.66 | 1.54 ± 1.10 | 2.18 ± 0.51 | 0.059 ± 0.004 | 1.078 ± 0.028^ g/100 g body weight | 0.873 | 0.061 | 0.022 ± 0.001 | Weight of gastrocnemius muscle (GA) (ICR mice; [3]): 0.409 ± 0.012 g; Weight of quadriceps femoris muscle (QF) (ICR mice; [3]): 0.330 g; Weight of soleus muscle (SOL) (ICR mice; [3]): 0.023 g
